From patent US10745382B2 (BRISTOL-MYERS SQUIBB COMPANY, priority 2015, dated 2020)

biological target: T1, PD-1/PD-L1 (Homo sapiens, UniProt Q9NZQ7); experiment: PD-1/PD-L1 Homogenous Time-Resolved Fluorescence (HTRF) binding assay; conditions: PD-L1-His 10 nM, PD-1-Ig 20 nM; numeric IC50; read-out: Range or IC50
T1 construct: made in house; host or cells: HEK293T
In short: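 dPBS + 0.1% BSA + 0.05% Tween-20 buffer; Eu-cryptate anti-Ig 1 nM final, APC anti-His 20 nM final; HTRF read. Counter-assays: PD-1-Ig/PD-L2-His 20 & 5 nM, CD80-His/PD-L1-Ig 100 & 10 nM.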

T1 sequence (Q9NZQ7 with tags, fused parts or gaps): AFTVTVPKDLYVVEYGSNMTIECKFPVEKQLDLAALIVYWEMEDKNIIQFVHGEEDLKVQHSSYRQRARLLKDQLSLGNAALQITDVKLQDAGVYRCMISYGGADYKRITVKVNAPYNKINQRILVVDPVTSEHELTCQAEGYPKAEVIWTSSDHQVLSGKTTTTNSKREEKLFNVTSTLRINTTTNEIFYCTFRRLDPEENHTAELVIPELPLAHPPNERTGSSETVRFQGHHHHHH

Compound | IC50 [nM]
CNC(=O)c1cccc(-c2cccc(COc3cc(OCc4cc(F)cc(F)c4)c(CN4CCC[C@H]4C(=O)O)cc3Cl)c2C)c1C [Example 4024, (5-chloro-2-((3,5-difluorobenzyl)oxy)-4-((2,2′-dimethyl-3′-(methylcarbamoyl)-[1,1′-biphenyl]-3-yl)methoxy)benzyl)-L-proline] | 87

same assay, conditions: PD-L1-His 10 nM, PD-1-Ig 20 nM; value given as range class; read-out: Range or IC50

Compound | IC50 [nM]
Cc1c(COc2cc(OCc3cncc(C#N)c3)c(CN3CCCC[C@H]3C(=O)O)cc2Cl)cccc1-c1cccc(OCCCN2C[C@H](O)C[C@H]2C(=O)O)c1C [Example 2241, (2S)-1-(4-((3′-(3-((2S,4R)-2-carboxy-4-hydroxypyrrolidin-1-yl)propoxy)-2,2′-dimethylbiphenyl-3-yl)methoxy)-5-chloro-2-((5-cyanopyridin-3-yl)methoxy)benzyl)piperidine-2-carboxylic Acid] | 0.21 to 10
CC(=O)NC1CCN(CCCOc2cccc(-c3cccc(COc4cc(OCc5cncc(C#N)c5)c(CN5CCCC[C@H]5C(=O)O)cc4Cl)c3C)c2Cl)CC1 [Example 1078, (S)-1-(4-((3′-(3-(4-acetamidopiperidin-1-yl)propoxy)-2′-chloro-2-methyl-[1,1′-biphenyl]-3-yl)methoxy)-5-chloro-2-((5-cyanopyridin-3-yl)methoxy)benzyl)piperidine-2-carboxylic Acid] | 0.21 to 10
Cc1c(COc2cc(OCc3cncc(C#N)c3)c(CN3CCCC[C@H]3C(=O)O)cc2Cl)cccc1-c1cccc(OCCCN2CC(N(C)C)C2)c1C [Example 2232, (2S)-1-(5-chloro-2-((5-cyanopyridin-3-yl)methoxy)-4-((3′-(3-(3-(dimethylamino)azetidin-1-yl)propoxy)-2,2′-dimethylbiphenyl-3-yl)methoxy)benzyl)piperidine-2-carboxylic Acid] | 0.21 to 10
CC(CO)(CO)NCc1cc(Cl)c(OCc2cccc(-c3cccc(OCCCNC[C@H](O)CO)c3Cl)c2Cl)cc1OCc1cccc(C#N)c1 [Example 2060, (S)-3-((4-chloro-5-((2,2′-dichloro-3′-(3-((2,3-dihydroxypropyl)amino)propoxy)-[1,1′-biphenyl]-3-yl)methoxy)-2-(((1,3-dihydroxy-2-methylpropan-2-yl)amino)methyl)phenoxy)methyl)benzonitrile] | 0.21 to 10
CNC(=O)c1cccc(-c2cccc(COc3cc(OCc4cc(F)cc(F)c4)c(C=O)cc3Cl)c2C)c1C [Example 4028, 3′-((2-chloro-5-((3,5-difluorobenzyl)oxy)-4-formylphenoxy)methyl)-N,2,2′-trimethyl-[1,1′-biphenyl]-3-carboxamide] | 100 to 2000
CCOC(=O)C1(CO)CCN(CCCOc2cccc(-c3cccc(COc4cc(OCc5cncc(C#N)c5)c(CN[C@H](CO)C(=O)O)cc4Cl)c3C)c2C)C1 (stereo partly drawn) [Example 1047, (2R)-2-((5-chloro-2-((5-cyanopyridin-3-yl)methoxy)-4-((3′-(3-(3-(ethoxycarbonyl)-3-(hydroxymethyl)pyrrolidin-1-yl)propoxy)-2,2′-dimethyl-[1,1′-biphenyl]-3-yl)methoxy)benzyl)amino)-3-hydroxypropanoic Acid] | 0.21 to 10
Cc1c(COc2cc(OCc3cncc(C#N)c3)c(CN[C@@H](CO)C(=O)O)cc2Cl)cccc1-c1cc(OCCCN2CC[C@@H](O)C2)cc(OCCCN2CC[C@@H](O)C2)c1 [Example 3065, (S)-2-((4-((3′,5′-bis(3-((R)-3-hydroxypyrrolidin-1-yl)propoxy)-2-methyl-[1,1′-biphenyl]-3-yl)methoxy)-5-chloro-2-((5-cyanopyridin-3-yl)methoxy)benzyl)amino)-3-hydroxypropanoic Acid] | 10 to 100
Cc1c(COc2cc(OCc3cncc(S(C)(=O)=O)c3)c(CN3CCCC[C@H]3C(=O)O)cc2Cl)cccc1-c1cccc(OCCCN2CC[C@H](O)C2)c1C [Example 1090, (S)-1-(5-chloro-4-((3′-(3-((S)-3-hydroxypyrrolidin-1-yl)propoxy)-2,2′-dimethyl-[1,1′-biphenyl]-3-yl)methoxy)-2-((5-(methylsulfonyl)pyridin-3-yl)methoxy)benzyl)piperidine-2-carboxylic Acid] | 0.21 to 10
